Measured values published in ChEMBL document CHEMBL6096686, “Lanosterol 14α-Demethylase (CYP51)/Heat Shock Protein 90 (Hsp90) Dual Inhibitors for the Treatment of Invasive Candidiasis” (J Med Chem, 2025).
Values after ≈ are worked out from the molar mass of the structure shown.

Columns and labels:
Pichia kudriavzevii = assay: Antifungal activity against Candida krusei 10153 incubated for 48 hrs by CLSI based liquid microdilution technique; type: functional
[1] = target: Lanosterol 14-alpha demethylase (Candida albicans (strain SC5314 / ATCC MYA-2876) (Yeast), UniProt P10613); assay: Inhibition of CYP51 in Candida albicans SC5314 assessed as accumulation of eburicol at 4 ug/ml measured after 48 hrs by GC-MS analysis; conditions: at 4 µg/mL
Cryptococcus neoformans = assay: Antifungal activity against Cryptococcus neoformans H99 incubated for 72 hrs by CLSI based liquid microdilution technique; type: functional
Nakaseomyces glabratus = assay: Antifungal activity against Candida glabrata 7804 incubated for 48 hrs by CLSI based liquid microdilution technique; type: functional
Candida albicans = assay: Antifungal activity against Candida albicans SC5314 incubated for 48 hrs by CLSI based liquid microdilution technique; type: functional

Chain of Lanosterol 14-alpha demethylase (P10613 whole entry): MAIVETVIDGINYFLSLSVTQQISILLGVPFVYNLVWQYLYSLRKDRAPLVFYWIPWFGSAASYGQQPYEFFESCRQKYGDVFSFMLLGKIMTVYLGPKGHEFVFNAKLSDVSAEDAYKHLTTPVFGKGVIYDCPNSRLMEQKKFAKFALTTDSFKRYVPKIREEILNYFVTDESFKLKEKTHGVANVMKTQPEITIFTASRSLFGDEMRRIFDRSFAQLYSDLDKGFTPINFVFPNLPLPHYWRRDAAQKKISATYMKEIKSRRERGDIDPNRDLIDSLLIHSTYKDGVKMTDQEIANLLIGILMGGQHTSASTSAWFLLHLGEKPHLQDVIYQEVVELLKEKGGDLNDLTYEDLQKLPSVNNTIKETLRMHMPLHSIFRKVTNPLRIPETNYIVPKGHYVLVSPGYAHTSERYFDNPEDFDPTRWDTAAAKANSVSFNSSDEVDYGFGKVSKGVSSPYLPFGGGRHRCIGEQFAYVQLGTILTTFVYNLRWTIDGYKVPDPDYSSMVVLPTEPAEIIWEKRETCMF

SMILES	MIC80 (Pichia kudriavzevii) [µg/mL]	inhibition (INH) [1]	MIC80 (Cryptococcus neoformans) [µg/mL]	MIC80 (Nakaseomyces glabratus) [µg/mL]	MIC80 (Candida albicans) [µg/mL]
OC(Cn1cncn1)(Cn1cncn1)c1ccc(F)cc1F [FLUCONAZOLE]	64 (≈ 209 µM)	Active	1 (≈ 3.27 µM)	16 (≈ 52.2 µM)	0.5 (≈ 1.63 µM)
CCN(C(=O)c1cc(-c2ccc(C)cc2)c(O)cc1O)c1ccc(CN2CCN(C(=O)CCCCCOc3ccc(CN(C)CC(O)(Cn4cncn4)c4ccc(F)cc4F)cc3)CC2)cc1 (configuration not stated)	32 (≈ 34.9 µM)	–	8 (≈ 8.73 µM)	16 (≈ 17.5 µM)	8 (≈ 8.73 µM)
CCN(C(=O)c1cc(-c2ccc(C)cc2)c(OCc2ccccc2)cc1OCc1ccccc1)c1ccc(CN2CCN(CC(O)(Cn3cncn3)c3ccc(F)cc3F)CC2)cc1 (configuration not stated)	> 64	–	> 64	16 (≈ 18.5 µM)	> 64
CCNC(=O)c1noc(-c2cc(-c3ccc(C)cc3)c(O)cc2O)c1-c1ccc(CN2CCN(C(=O)CCCOc3ccc(CN(C)CC(O)(Cn4cncn4)c4ccc(F)cc4F)cc3)CC2)cc1 (configuration not stated)	> 64	–	4 (≈ 4.19 µM)	16 (≈ 16.8 µM)	8 (≈ 8.38 µM)
